Measurements: patent US4956343A, “Control of insects by Roseotoxin B” (priority 1988, dated 1990)
Square brackets hold non-standard residues; d marks the D form. Peptide text beside a SMILES is read from it. dLac(3-vinyl) = C=CC[C@@H](O)C(=O)O; dHica = CC(C)C[C@@H](O)C(=O)O; NMeV = CN[C@H](C(=O)O)C(C)C; NMeA = CN[C@@H](C)C(=O)O; βAla = NCCC(=O)O

Experiments:
[1] = tested on: mice; conditions: intraperitoneal injection; cited from earlier work
[2] = tested on: silk worm larvae; conditions: cited from earlier work
[3] = tested on: mice; assay: Toxicity to mice by intraperitoneal injection; conditions: ratio of lethal doses
[4] = tested on: Heliothis zea; assay: Insecticidal activity, diet incorporation, neonate corn earworm larvae; assay type: in vivo; conditions: 2.5 ppm in diet; for Mortality: neonate larvae fed 1 week; for Wt. reductions: survivors after 1 week
Experimental: (§1) Insects. Neonate larvae of Heliothis zea and Spodoptera frugiperda were used for all assays. They were obtained from laboratory colonies reared on pinto bean-based diet at 27°±1° C., 40±10% relative humidity, and a 14:10 light:dark photoperiod.
(§2) The diet used to rear the insects was based on a standard pinto bean diet for many species of lepidoptera and contained the following ingredients: 120 g dried pinto beans, 43 g wheat germ, 28 g brewer's yeast, 8 g Vanderzant's vitamin mix, 2.8 g ascorbic acid, 1.75 g methyl paraben, 0.9 g sorbic acid, 12 g agar, 1 ml formaldehyde (38%), 1.5 ml of propionic-phosphoric acid solution (42% propionic acid, 4.2% phosphoric acid), and 550 ml water. All dry diet ingredients (except for the pinto beans) were purchased from U.S. Biochemicals Corp. Before use, the beans were soaked in water until saturated. The agar was added to 250 ml of water and brought to a boil. The other ingredients were blended in a Waring blender until uniformly mixed. The hot agar was added, and blending continued until all ingredients were uniformly mixed.
(§3) The pinto bean-based diet was prepared and added in 5-ml quantities to test tubes. The test tubes were held at 60° C. until chemicals were incorporated to prevent solidification of the diet. The roseotoxin B was added in 125 μl of acetone to the liquid diet upon removal from the water bath to give a final concentration of 250-2.5 ppm. The chemical was incorporated into the diets by blending vigorously with a vortex mixer for 20 sec. Preliminary observations with colored solutions of both water and acetone indicated uniform incorporation by this method. The diets were dispensed into culture plates, and allowed to cool to room temperature. To remove the potentially toxic acetone, the diets were placed in a fume hood for ca. 20 min until slight darkening occurred. The diets were cut into approximately equal sections, and each section was placed into a well of a 24-well immunoassay plate. A single neonate H. zea or S. frugiperda larvae was added to each well. To prevent desiccation of the diet, the plate was covered by a sheet of parafilm, a sheet of cardboard, and the plastic cover. The cover was secured by two rubber bands, and groups of plates were placed in two polyethylene bags held closely by rubber bands. The plates were held under the same conditions used to rear the insects. Mortality was checked at 2, 4, and 7 days, and the surviving larvae were weighed after 7 days. Each chemical set was tested on a total of 40 larvae.
(§4) Mortality values are based on two replicates of ca. 20 insects each, whil
(§5) weight reductions are based on survivors of mortality tests. All chemical
(§6) were incorporated into insect diets, and fed to neonate larvae for 1 week

[5] = tested on: Spodoptera frugiperda; assay: Insecticidal activity, diet incorporation, neonate fall armyworm larvae; assay type: in vivo; conditions: 2.5 ppm in diet; for Mortality: neonate larvae fed 1 week; for Wt. reductions: survivors after 1 week
Experimental: as §1, §2, §3, §4, §5, §6

SMILES	Dose that killed all test mice [1]	Dose causing death by injection [2]	Mammalian toxicity relative to roseotoxin B [3]	Mortality [4]	Wt. reductions [4]	Mortality [5]	Wt. reductions [5]
CC[C@H](C)[C@@H]1NC(=O)[C@@H]2CCCN2C(=O)[C@@H](CC(C)C)OC(=O)CCNC(=O)[C@H](C)N(C)C(=O)[C@H](C(C)C)N(C)C1=O [Destruxin B] (cyclo([dHica]PI[NMeV][NMeA][βAla]))	16.9 mg/kg	0.34 µg/g	about 10 times				
CC1(C)C(C=C(Cl)Cl)C1C(=O)OCc1cccc(Oc2ccccc2)c1 (centres unmarked) [Permethrin]				17%	81%	35%	94%
C=CC[C@H]1OC(=O)CCNC(=O)[C@H](C)N(C)C(=O)[C@H](C(C)C)N(C)C(=O)[C@H]([C@@H](C)CC)NC(=O)[C@@H]2CCCN2C1=O [destruxin A] (cyclo([dLac(3-vinyl)]PI[NMeV][NMeA][βAla]))	1.35 mg/kg	0.28 µg/g	approximately 100 times				
CCOC(=O)CC(SP(=S)(OC)OC)C(=O)OCC (centres unmarked) [Malathion]				5.5%	27%	30%	45%
